The values that follow come from patent US8946264B2, “Pyridine derivative” (Daiichi Sankyo Company, Limited, priority 2009, dated 2015).

The subject of one assay is KK mice. Put plainly: Hypoglycemic effect (glucose lowering rate) in diabetic KK mice. In kind it is in vivo. Particulars: male KK mice, diet admixture containing 0.03% of the compound, three days, plasma glucose on the 3rd day vs control group; for inhibition in vivo at 0.03 % in diet: Mus musculus, po, 72 h. The text has this:
Six-week-old male KK mice were purchased from CLEA Japan, Inc. and then were fed until 15 to 20 weeks old to develop diabetes. The mice were individually fed during the adaptation period and the test period, and water and feed (FR2, Funabashi Farm) were freely ingested.
At the start of the experiment, after body weight measurement, blood was collected from the tail vein of the mice into a heparin-coated glass tube and centrifuged, and then plasma was separated. The glucose level in the plasma was measured by Glucoloader GXT (A&T Corp.), and individuals having a plasma glucose level of about 350 mg/dl or more were selected. The mice were grouped, each group having 3 to 4 mice, to make the average body weight and the average plasma glucose level similar. Each compound was administered to a compound group with a diet admixture containing 0.03% of the compound. A separate group in which the mice were fed only with diet was a control group.
The experiment period (drug administration period) was three days. The grouping day was the 0th day. On the 3rd day, the body weight was measured and blood was collected from the tail vein to measure the plasma glucose level.
The glucose lowering rate was determined by the following formula. Glucose lowering rate=[(Control group plasma glucose level−Compound-administered group plasma glucose level)/Control group plasma glucose level]×100

In assay [1] the target is T1, GAL4-PPARγ chimeric receptor (Homo sapiens, UniProt P37231).
T1 construct: expressed in transfected cells; host or cells: COS-7 (monkey kidney-derived cell line)
T1 sequence (P37231 with tags, fused parts or gaps): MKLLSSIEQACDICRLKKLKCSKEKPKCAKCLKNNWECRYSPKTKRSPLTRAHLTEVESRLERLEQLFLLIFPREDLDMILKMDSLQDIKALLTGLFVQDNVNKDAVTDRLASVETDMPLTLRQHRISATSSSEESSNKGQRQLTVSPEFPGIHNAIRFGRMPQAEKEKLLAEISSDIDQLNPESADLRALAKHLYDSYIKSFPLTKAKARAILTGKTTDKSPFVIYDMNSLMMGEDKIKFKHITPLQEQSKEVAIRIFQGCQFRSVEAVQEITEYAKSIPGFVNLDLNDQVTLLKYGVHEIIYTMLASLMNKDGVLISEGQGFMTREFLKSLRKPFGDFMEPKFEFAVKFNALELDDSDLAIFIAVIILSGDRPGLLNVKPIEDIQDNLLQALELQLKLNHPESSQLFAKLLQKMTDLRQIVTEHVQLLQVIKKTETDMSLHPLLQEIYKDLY
Put plainly: PPARγ activation effect/modulator activity, GAL4-PPARγ luciferase reporter assay in COS-7 cells. In kind it is cell-based. Particulars: for Emax: COS-7, maximum luciferase activity, positive control rosiglitazone = 100%, DMSO control = 0%. As to the method:
A test was carried out according to the reporter assay method with reference to a report by Kliewer et al. (Journal of Biological Chemistry, 1995, Vol. 270 (22), p. 12953-12956) as a method for measuring the ability of a compound to activate PPARγ (hereinafter PPARγ activation effect/modulator activity). Commercially available reagents and kits were used according to the attached instructions. The details will be shown below. The ligand-binding domain of human PPARγ (corresponding to about 300 amino acids at the carboxy end) was bound to the DNA-binding domain of the yeast transcription factor GAL4 (corresponding to 147 amino acids at the amino end) with reference to the report by Kliewer et al. to prepare a gene expressing a GAL4-PPARγ receptor. The plasmid pM-PPARγ obtained by the above operation includes the nucleotide sequence represented by SEQ ID NO: 4 of the Sequence Listing and encodes an amino acid sequence represented by SEQ ID NO: 5 of the Sequence Listing containing amino acids 1 to 147 of the yeast transcription factor GAL4 at the amino end and containing amino acids 175 to 475 of human PPARγ and a stop codon at the carboxy end. The plasmid is a gene that can express a GAL4-PPARγ chimeric receptor in mammalian cells. The previously acquired plasmid pM-PPARγ and the plasmid pFR-Luc purchased from Stratagene Cloning Systems, Inc. were dissolved in deionised water at a concentration of 1 mg/mL each. […] COS-7 cells were transfected with 4.8 micrograms per flask of the plasmid pM-PPARγ and 19.2 μg per flask of the plasmid pFR-Luc using Lipofectamine 2000 transfection reagent (manufactured by Invitrogen Corporation), and the cells were cultured overnight. […] The test compound was dissolved in dimethyl sulfoxide at a concentration of 4 mM. The solution was serially diluted 3.3-fold with dimethyl sulfoxide to prepare solutions of the compound at concentrations up to 400 nM. Dimethyl sulfoxide was prepared for the control group. Rosiglitazone dissolved in dimethyl sulfoxide at a concentration of 4 mM was prepared for the positive control group. They were diluted 20-fold with the medium, and 5 μL of the dilution was added to the wells in which the cells were grown. […] After the addition, the cells were cultured overnight. On the following day, the medium was removed, and Luc Lite (manufactured by PerkinElmer Inc.) was prepared according to the attached document and added at 50 microliters per well. […] The amount of luminescence in each well was measured as luciferase activity using Analyst (Molecular Devices) for 0.5 second. A dose-dependent curve was drawn.
Background: In a reporter assay the amount or activity of a reporter protein is the signal.

Regarding `Cn1c(COc2cccc(C(=O)O)c2)nc2ccc(Oc3cccnc3)cc21` [Compound A, reference compound], the inhibition in vivo (commonly the relative decrease from the control value, in per cent) at 0.03 % in diet in the assay on KK mice is 20%. In the case of `CCc1cccnc1Oc1ccc2nc(COc3cccc(C(=O)O)c3)n(C)c2c1` [Example 2, 3-({6-[(3-Ethylpyridin-2-yl)oxy]-1-methyl-1H-benzimidazol-2-yl}methoxy)benzoic acid], the inhibition in vivo at 0.03 % in diet in the assay with KK mice worked out at 31%. In assay [1], the half-maximal effective concentration (EC50) (usually the concentration at which the effect is half-maximal) was 180 nM and the Emax – broadly, the maximal effect, on the per cent scale that the assay sets – was found to be 73%. On to `Cc1ccc(Oc2ccc3nc(COc4cccc(C(=O)O)c4)n(C)c3c2)nc1C` [Example 4, 3-({6-[(5,6-Dimethylpyridin-2-yl)oxy]-1-methyl-1H-benzimidazol-2-yl}methoxy)benzoic acid], for which the “Glucose lowering rate (%)” value in the assay with KK mice was determined as 28%. In the case of `Cn1c(COc2cccc(C(=O)O)c2)nc2ccc(Oc3ncc(Cl)cc3F)cc21` [Example 5, 3-({6-[(5-Chloro-3-fluoropyridin-2-yl)oxy]-1-methyl-1H-benzimidazol-2-yl}methoxy)benzoic acid], in the assay with KK mice, the inhibition in vivo at 0.03 % in diet amounted to 34%. In assay [1], it took 24 nM to reach a half-maximal effect (EC50) and the Emax worked out at 79%.

For `Cc1cc(F)cnc1Oc1ccc2nc(COc3cccc(C(=O)O)c3)n(C)c2c1` [Example 8, 3-({6-[(5-Fluoro-3-methylpyridin-2-yl)oxy]-1-methyl-1H-benzimidazol-2-yl}methoxy)benzoic acid], the “Glucose lowering rate (%)” value in the assay with KK mice was determined as 33%. Take `Cc1cnc(Oc2ccc3nc(COc4cccc(C(=O)O)c4)n(C)c3c2)c(F)c1` [Example 9, 3-({6-[(3-Fluoro-5-methylpyridin-2-yl)oxy]-1-methyl-1H-benzimidazol-2-yl}methoxy)benzoic acid]: the “Glucose lowering rate (%)” value with KK mice is listed as 41%. Same read-out and setting: the figure for `Cc1cnc(Oc2ccc3nc(COc4cccc(C(=O)O)c4)n(C)c3c2)c(C)c1` [Example 10, 3-({6-[(3,5-Dimethylpyridin-2-yl)oxy]-1-methyl-1H-benzimidazol-2-yl}methoxy)benzoic acid] is 37%; for `Cc1cc(C)c(Oc2ccc3nc(COc4cccc(C(=O)O)c4)n(C)c3c2)nc1C` [Example 15, 3-({1-Methyl-6-[(3,5,6-trimethylpyridin-2-yl)oxy]-1H-benzimidazol-2-yl}methoxy)benzoic acid] it is 30%. Turning to `COc1cc(Oc2ccc3nc(COc4cccc(C(=O)O)c4)n(C)c3c2)ccn1` [Example 16, 3-({6-[(2-Methoxypyridin-4-yl)oxy]-1-methyl-1H-benzimidazol-2-yl}methoxy)benzoic acid], the inhibition in vivo at 0.03 % in diet in the assay on KK mice is 17%. The same measure, in the same setting: for `COc1cc(Oc2ccc3nc(COc4cccc(C(=O)O)c4)n(C)c3c2)cc(C)n1` [Example 17, 3-({6-[(2-Methoxy-6-methylpyridin-4-yl)oxy]-1-methyl-1H-benzimidazol-2-yl}methoxy)benzoic acid] the value was 36%.
